In article PMC9059924 (RSC Advances, 2019):

Columns and labels:
Format in all cases: cell-based, rat
primary cortical neurons = test: Viability of normal primary cortical neurons after administration; conditions: 100 μM; for Cell survival rate of primary neurons after administration: normal neurons, control 1.00, mean ± SE
[1] = system: primary cortical neurons (OGD model); test: Cell viability of primary cortical neurons in oxygen glucose deprivation; conditions: for Improvement of survival rate of neuron (OGD 12 h), in words: P < 0.05 vs model; for Sample in 100 μM: cytotoxic at this concentration: footnote c; for Neuroprotective activity of BA compounds in OGD model, in words: text SAR; for Cell survival rate of primary neurons (OGD 12 h), Edaravone: positive drug 100 μM
[2] = system: primary cortical neurons (OGD model); test: Morphology of OGD neurons under inverted microscope; conditions: OGD 12 h

Compound | Cell survival rate of primary neurons after administration (primary cortical neurons) [%] | Sample in 100 μM: cytotoxic at this concentration ([1]; BA compounds) | other results
CC1(C)C=Cc2cc(NC(=O)/C=C/c3ccccc3)ccc2O1 [BA-07, (E)-N-(2,2-Dimethyl-2H-1-benzopyran-6-yl)-3-phenylacrylamide] | 0.78 ± 0.046 | — ^c | Cytotoxicity to normal neurons (reduced cell survival rate), in words (primary cortical neurons): cytotoxic; Improvement of survival rate of neuron (OGD 12 h), in words ([1]; 1 μM): significantly improve the survival rate of neuron
CC1(C)C=Cc2cc(NC(=O)/C=C/c3ccc(O)c(O)c3)ccc2O1 [BA-04, (E)-N-(2,2-Dimethyl-2H-1-benzopyran-6-yl)-3-(3,4-dihydroxyphenyl)acrylamide] | 0.56 ± 0.014 | — ^c | Cytotoxicity to normal neurons (reduced cell survival rate), in words (primary cortical neurons): cytotoxic; Neuroprotective activity of BA compounds in OGD model, in words ([1]; OGD 12 h): the activity was decreased or disappeared
CC1(C)C=Cc2cc(/C=C/C(=O)N3CCN(c4ccc(O)cc4)CC3)ccc2O1 [BN-07, (E)-3-(2,2-Dimethyl-2H-1-benzopyran-6-yl)-1-(4-(4-hydroxyphenyl)piperazin-1-yl)prop-2-en-1-one] | 0.96 ± 0.0063 |  | Neuroprotective effect of BN compounds on survival of OGD neurons, in words ([1]; OGD 12 h, compared with model group / edaravone): good efficacy in neurons of OGD model; Morphology of neurons induced by OGD, in words [2]: significantly improved the morphology of neurons
CC1(C)C=Cc2cc(/C=C/C(=O)Oc3ccccc3)ccc2O1 [BN-05, (E)-3-(2,2-Dimethyl-2H-1-benzopyran-6-yl)-acrylate-phenyl ester] | 0.86 ± 0.023 |  | 
COc1ccc(NC(=O)/C=C/c2ccc3c(c2)C=CC(C)(C)O3)cc1 [BN-02, (E)-3-(2,2-Dimethyl-2H-1-benzopyran-6-yl)-N-(4-methoxyphenyl)acrylamide] | 0.93 ± 0.0080 |  | 
COc1ccccc1NC(=O)/C=C/c1ccc2c(c1)C=CC(C)(C)O2 [BN-04, (E)-3-(2,2-Dimethyl-2H-1-benzopyran-6-yl)-N-(2-methoxyphenyl)acrylamide] | 0.88 ± 0.038 |  | 
CC1(C)C=Cc2cc(NC(=O)/C=C/c3cccnc3)ccc2O1 [BA-09, (E)-N-(2,2-Dimethyl-2H-1-benzopyran-6-yl)-3-(pyridin-3-yl)acrylamide] | 0.49 ± 0.047 | — ^c | Improvement of survival rate of neuron (OGD 12 h), in words ([1]; 1 μM): significantly improve the survival rate of neuron; Neuroprotective activity of BA compounds in OGD model, in words ([1]; OGD 12 h): maintained the same biological activity
CC1(C)C=Cc2cc(NC(=O)/C=C/c3cccs3)ccc2O1 [BA-11, (E)-N-(2,2-Dimethyl-2H-1-benzopyran-6-yl)-3-(thiophen-2-yl)acrylamide] | 0.89 ± 0.054 |  | Improvement of survival rate of neuron (OGD 12 h), in words ([1]; 1 μM): significantly improve the survival rate of neuron; Neuroprotective activity of BA compounds in OGD model, in words ([1]; OGD 12 h): maintained the same biological activity
COc1cccc(NC(=O)/C=C/c2ccc3c(c2)C=CC(C)(C)O3)c1 [BN-03, (E)-3-(2,2-Dimethyl-2H-1-benzopyran-6-yl)-N-(3-methoxyphenyl)acrylamide] | 0.89 ± 0.02 |  | 
COc1cc(/C=C/C(=O)Nc2ccc3c(c2)C=CC(C)(C)O3)ccc1O [BA-02, (E)-N-(2,2-Dimethyl-2H-1-benzopyran-6-yl)-3-(4-hydroxy-3-methoxyphenyl)acrylamide] | 0.76 ± 0.025 | — ^c | Cytotoxicity to normal neurons (reduced cell survival rate), in words (primary cortical neurons): cytotoxic
CC1(C)C=Cc2cc(NC(=O)/C=C/c3ccc(O)cc3)ccc2O1 [BA-01, (E)-N-(2,2-Dimethyl-2H-1-benzopyran-6-yl)-3-(4-hydroxyphenyl)acrylamide] | 0.75 ± 0.021 | — ^c | Cytotoxicity to normal neurons (reduced cell survival rate), in words (primary cortical neurons): cytotoxic; Neuroprotective activity of BA compounds in OGD model, in words ([1]; OGD 12 h): the activity was decreased or disappeared
CC1(C)C=Cc2cc(/C=C/C(=O)Nc3ccccc3)ccc2O1 [BN-01, (E)-3-(2,2-Dimethyl-2H-1-benzopyran-6-yl)-N-phenylacrylamide] | 0.85 ± 0.038 |  | 
COc1ccc(N2CCN(C(=O)/C=C/c3ccc4c(c3)C=CC(C)(C)O4)CC2)cc1 [BN-06, (E)-3-(2,2-Dimethyl-2H-1-benzopyran-6-yl)-1-(4-(4-methoxyphenyl)piperazin-1-yl)prop-2-en-1-one] | 0.91 ± 0.028 |  | 
3-(2,2-Dimethyl-2H-1-benzopyran-6-yl)-N-(3-methoxyphenyl)-3-((3-methoxyphenyl)amino)propenamide [BN-10] | 0.81 ± 0.058 |  | Cell survival rate of primary neurons (OGD 12 h), Sample in 1 μM ([1]; BN compounds, 1 μM, model 0.41 ± 0.014, control 1.00, mean ± SE): 0.81 ± 0.0090 %; Cell survival rate of primary neurons (OGD 12 h), Sample in 30 μM ([1]; BN compounds, 30 μM, model 0.41 ± 0.014, control 1.00, mean ± SE): 0.77 ± 0.0035 %; Sample in 100 μM: cytotoxic at this concentration ([1]; BN compounds): — ^c
CC1(C)C=Cc2cc(NC(=O)/C=C/c3ccc4c(c3)OCO4)ccc2O1 [BA-05, (E)-N-(2,2-Dimethyl-2H-1-benzopyran-6-yl)-3-(1,3-benzodioxole-5-yl)acrylamide] | 0.85 ± 0.037 |  | 
COc1ccc(/C=C/C(=O)Nc2ccc3c(c2)C=CC(C)(C)O3)cc1 [BA-06, (E)-N-(2,2-Dimethyl-2H-1-benzopyran-6-yl)-3-(4-methoxyphenyl)acrylamide] | 0.86 ± 0.018 |  | 
CC1(C)C=Cc2cc(NC(=O)/C=C/c3cccc4ccccc34)ccc2O1 [BA-08, (E)-N-(2,2-Dimethyl-2H-1-benzopyran-6-yl)-3-(naphthalen-1-yl)acrylamide] | 0.73 ± 0.025 | — ^c | Improvement of survival rate of neuron (OGD 12 h), in words ([1]; 1 μM): significantly improve the survival rate of neuron
COc1ccc(/C=C/C(=O)Nc2ccc3c(c2)C=CC(C)(C)O3)cc1O [BA-03, (E)-N-(2,2-Dimethyl-2H-1-benzopyran-6-yl)-3-(3-hydroxy-4-methoxyphenyl)acrylamide] | 0.77 ± 0.012 | — ^c | Cytotoxicity to normal neurons (reduced cell survival rate), in words (primary cortical neurons): cytotoxic; Improvement of survival rate of neuron (OGD 12 h), in words ([1]; 1 μM): significantly improve the survival rate of neuron
COc1ccc(NC(=O)CC(Nc2ccc(OC)cc2)c2ccc3c(c2)C=CC(C)(C)O3)cc1 (stereo not drawn) [BN-09, 3-(2,2-Dimethyl-2H-1-benzopyran-6-yl)-N-(4-methoxyphenyl)-3-((4-methoxyphenyl)amino)propanamide] | 0.80 ± 0.047 |  | Sample in 100 μM: cytotoxic at this concentration ([1]; BN compounds): — ^c
CC1(C)C=Cc2cc(NC(=O)/C=C/c3ccco3)ccc2O1 [BA-10, (E)-N-(2,2-Dimethyl-2H-1-benzopyran-6-yl)-3-(furan-2-yl)acrylamide] | 0.84 ± 0.026 |  | Neuroprotective activity of BA compounds in OGD model, in words ([1]; OGD 12 h): lost neuroprotective effect
CC1(C)C=Cc2cc(C(CC(=O)Nc3ccccc3)Nc3ccccc3)ccc2O1 (stereo not drawn) [BN-08, 3-(2,2-Dimethyl-2H-1-benzopyran-6-yl)-N-phenyl-3-(phenylamino)propanamide] | 0.99 ± 0.019 |  | 
5-methyl-2-phenyl-1,2-dihydropyrazol-3-one [Edaravone, reference compound] |  |  | Cell survival rate of primary neurons (OGD 12 h), Edaravone ([1]; BA table, model 0.49 ± 0.094, mean ± SE): 0.54 ± 0.0069 %; Cell survival rate of primary neurons (OGD 12 h), Edaravone ([1]; BN table, model 0.41 ± 0.014, mean ± SE): 0.56 ± 0.015 %
